For data set [1], the target named is T1, PI 3-kinase alpha (Homo sapiens, UniProt P42336). Kind of data set: Kinase Glo Luminescent Kinase Assay (Kglo), assay A. In kind it is biochemical. The following applies: read-out: Assay A PI3Kα IC50. Background: Kinase-Glo measures the ATP left after a reaction by luminescence.
Target sequence in this assay (P42336 whole entry): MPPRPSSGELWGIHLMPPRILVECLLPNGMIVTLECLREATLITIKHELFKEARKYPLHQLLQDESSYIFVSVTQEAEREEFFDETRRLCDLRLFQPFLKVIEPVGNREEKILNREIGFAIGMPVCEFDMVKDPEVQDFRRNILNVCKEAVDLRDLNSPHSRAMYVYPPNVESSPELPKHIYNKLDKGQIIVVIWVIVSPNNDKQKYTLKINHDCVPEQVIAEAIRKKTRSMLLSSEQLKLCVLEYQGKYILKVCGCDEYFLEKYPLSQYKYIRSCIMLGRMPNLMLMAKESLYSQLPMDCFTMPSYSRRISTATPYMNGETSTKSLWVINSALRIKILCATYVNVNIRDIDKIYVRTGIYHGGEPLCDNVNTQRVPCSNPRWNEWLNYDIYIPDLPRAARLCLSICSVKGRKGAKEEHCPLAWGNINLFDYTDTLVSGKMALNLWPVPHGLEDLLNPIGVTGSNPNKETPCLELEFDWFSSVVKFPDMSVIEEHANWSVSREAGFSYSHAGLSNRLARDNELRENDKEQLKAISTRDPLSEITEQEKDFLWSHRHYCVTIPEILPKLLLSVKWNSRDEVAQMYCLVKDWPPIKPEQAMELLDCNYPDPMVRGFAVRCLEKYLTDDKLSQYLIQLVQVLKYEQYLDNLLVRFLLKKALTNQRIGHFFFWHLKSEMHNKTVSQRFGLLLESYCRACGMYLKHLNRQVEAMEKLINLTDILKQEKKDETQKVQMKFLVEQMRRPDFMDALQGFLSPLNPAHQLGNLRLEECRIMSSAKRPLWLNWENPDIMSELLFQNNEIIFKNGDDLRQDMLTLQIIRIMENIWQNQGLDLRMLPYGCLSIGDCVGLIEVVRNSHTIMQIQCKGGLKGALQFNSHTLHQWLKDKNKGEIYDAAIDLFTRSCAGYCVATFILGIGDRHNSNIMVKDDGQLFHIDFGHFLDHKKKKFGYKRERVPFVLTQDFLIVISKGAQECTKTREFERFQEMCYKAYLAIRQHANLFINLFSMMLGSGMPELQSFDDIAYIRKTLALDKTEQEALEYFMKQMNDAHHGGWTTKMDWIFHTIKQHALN
In data set [2] the target is T2, PI 3-kinase beta (Homo sapiens, UniProt P42338). As to the kind of experiment: Kinase Glo Luminescent Kinase Assay (Kglo), assay B. Conditions: read-out: Assay B PI3Kβ IC50. In kind it is biochemical.
Target sequence in this assay (P42338 whole entry): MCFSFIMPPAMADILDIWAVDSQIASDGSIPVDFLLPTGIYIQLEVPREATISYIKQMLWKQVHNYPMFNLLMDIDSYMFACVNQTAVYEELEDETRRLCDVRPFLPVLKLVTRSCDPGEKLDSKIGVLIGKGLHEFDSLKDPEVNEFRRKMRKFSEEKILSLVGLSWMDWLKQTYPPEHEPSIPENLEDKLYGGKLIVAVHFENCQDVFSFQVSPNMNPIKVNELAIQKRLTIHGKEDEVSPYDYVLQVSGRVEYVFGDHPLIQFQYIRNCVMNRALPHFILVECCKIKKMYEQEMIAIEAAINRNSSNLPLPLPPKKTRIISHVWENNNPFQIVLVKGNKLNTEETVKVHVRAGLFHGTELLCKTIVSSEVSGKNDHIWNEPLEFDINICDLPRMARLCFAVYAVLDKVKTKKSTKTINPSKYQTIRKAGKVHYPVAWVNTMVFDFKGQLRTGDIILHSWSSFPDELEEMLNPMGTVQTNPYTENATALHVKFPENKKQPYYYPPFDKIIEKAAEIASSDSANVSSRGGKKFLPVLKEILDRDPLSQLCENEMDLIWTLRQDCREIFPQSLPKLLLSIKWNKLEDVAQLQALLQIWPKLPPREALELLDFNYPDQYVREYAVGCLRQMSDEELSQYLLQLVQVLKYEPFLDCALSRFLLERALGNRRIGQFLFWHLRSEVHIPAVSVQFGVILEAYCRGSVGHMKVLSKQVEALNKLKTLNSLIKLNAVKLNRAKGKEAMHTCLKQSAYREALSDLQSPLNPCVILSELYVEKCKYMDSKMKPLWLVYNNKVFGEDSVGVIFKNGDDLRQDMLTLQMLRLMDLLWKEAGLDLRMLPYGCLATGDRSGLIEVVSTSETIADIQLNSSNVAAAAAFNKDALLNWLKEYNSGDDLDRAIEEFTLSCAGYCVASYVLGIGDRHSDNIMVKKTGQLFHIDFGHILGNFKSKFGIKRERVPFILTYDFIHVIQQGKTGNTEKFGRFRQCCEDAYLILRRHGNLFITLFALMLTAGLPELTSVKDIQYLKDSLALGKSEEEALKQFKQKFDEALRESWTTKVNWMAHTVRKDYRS
Target sequence in this assay (P27986 461-568 partner): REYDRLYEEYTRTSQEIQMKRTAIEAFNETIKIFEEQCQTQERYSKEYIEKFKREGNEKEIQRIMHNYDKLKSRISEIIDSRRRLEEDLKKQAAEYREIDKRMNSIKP
The target of another data set is Vps34 (Homo sapiens, UniProt Q8NEB9). Kind of data set: Kinase Glo Luminescent Kinase Assay (Kglo), assay C. The following applies: read-out: Assay C VPS34 IC50. The format is biochemical.
For the next data set, the target named is PI 4-kinase beta (Homo sapiens, UniProt Q9UBF8). As to the kind of experiment: Kinase Glo Luminescent Kinase Assay (Kglo), assay D. The format is biochemical. The following applies: read-out: Assay D PI4Kβ IC50.
Data set [3] deals with T3, PI 3-kinase gamma (Homo sapiens, UniProt P48736). As to the kind of experiment: TR-FRET Adapta assay, assay E. The format is biochemical. The following applies: read-out: Assay E PI3Kγ IC50. In general terms: Time-resolved FRET reads energy transfer from a long-lived donor to a nearby acceptor.
Procedure: (§1) TR-FRET Adapta Assay for PI 3-Kinase Gamma (E), PI 3-Kinase Delta (F)
(§2) The TR-FRET Adapta™ Universal Kinase Assay Kit was purchased from Invitrogen Corporation (Carlsbad/CA, USA) (Cat. No. PV5099).
(§3) PIK3CD substrate phosphatidylinositol (PI) was obtained from Invitrogen (vesicules consisting of 2 mM phosphatidylinositol (PI) in 50 mM HEPES pH7.5; Cat. No. PV5371). PIK3CG substrate phosphatidylinositol-4,5-bisphosphate (PIP(4,5)2 was obtained from Invitrogen (PIP2:PS large unilamellar vesicules consisting of 1 mM PIP2: 19 mM PS in 50 mM HEPES pH7.5, 3 mM MgCl2, 1 mM EGTA; Cat. No. PV5100).
(§4) Time-Resolved Fluorescence Resonance Energy Transfer (TR-FRET) is a technology based on energy transfer between two adjacent dyes, from an excited electron in one dye (the donor) to an electron of an adjacent dye (the acceptor) through resonance, then released as a photon. This energy transfer is detected by an increase in the fluorescence emission of the acceptor, and a decrease in the fluorescence emission of the donor. TR-FRET assays for protein kinases use a long-lifetime lanthanide Terbium or Europium chelates as the donor species which overcome interference from compound autofluorescence or light scatter from precipitated compounds, by introducing a delay after excitation by a flashlamp excitation source. Results are often expressed as a ratio of the intensities of the acceptor and donor fluorophores. The ratiometric nature of such a value corrects for differences in assay volumes between wells, as well as corrects for quenching effects due to colored compounds. The Adapta™ assay can be divided into two phases: a kinase reaction phase and an ADP detection phase. In the kinase reaction phase, all kinase reaction components are added to the well and the reaction is allowed to incubate for a set period of time specific for each kinase. […] In the presence of an inhibitor, the amount of ADP formed by the kinase reaction is reduced, and the resulting intact antibody-tracer interaction maintains a high TR-FRET signal.
(§5) 50 nL of compound dilutions were dispensed onto white 384-well small volume polystyrene plate. Then 5 μL of either PI 3-kinase gamma or PI 3-kinase delta and lipid substrate (PI or PIP2:PS) followed by 5 μL of ATP (final assay volume 10 μL) are incubated at RT. The standard reaction buffer for the Adapta™ TR-FRET assay contained 10 mM Tris-HCl pH 7.5, 3 mM MgCl2, 50 mM NaCl, 1 mM DTT, 0.05% CHAPS 3-[(3-cholamidopropyl)dimethylammonio]-1-propanesulfonate).
(§6) Data are analyzed using Excel fit software or Graphpad Prism. IC50 values were derived by fitting a sigmoidal dose-response curve to a plot of assay readout over inhibitor concentration. All fits were performed with the program XLfit4 (ID Business Solutions, Guildford, UK). […] All fits were performed with the program XLfit4 (ID Business Solutions, Guildford, UK).
For a further data set, the target named is mTOR (Homo sapiens, UniProt P42345). Kind of data set: Lanthascreen kinase binding assay, assay G. The following applies: read-out: Assay G mTOR IC50.
Data set [4] has as its target T1, PI 3-kinase alpha. As to the kind of experiment: Cellular assay H1, p-Akt (S473) in Rat-1 cells, Surefire format. The format is cell-based. Conditions: non-asterisked data: version H1 (Surefire format), Rat-1 cells; read-out: Assay H PI3Kα IC50.
Target sequence in this assay (P42336 whole entry): as the sequence (P42336 whole entry) above
Target sequence in this assay (Q63787 whole entry partner): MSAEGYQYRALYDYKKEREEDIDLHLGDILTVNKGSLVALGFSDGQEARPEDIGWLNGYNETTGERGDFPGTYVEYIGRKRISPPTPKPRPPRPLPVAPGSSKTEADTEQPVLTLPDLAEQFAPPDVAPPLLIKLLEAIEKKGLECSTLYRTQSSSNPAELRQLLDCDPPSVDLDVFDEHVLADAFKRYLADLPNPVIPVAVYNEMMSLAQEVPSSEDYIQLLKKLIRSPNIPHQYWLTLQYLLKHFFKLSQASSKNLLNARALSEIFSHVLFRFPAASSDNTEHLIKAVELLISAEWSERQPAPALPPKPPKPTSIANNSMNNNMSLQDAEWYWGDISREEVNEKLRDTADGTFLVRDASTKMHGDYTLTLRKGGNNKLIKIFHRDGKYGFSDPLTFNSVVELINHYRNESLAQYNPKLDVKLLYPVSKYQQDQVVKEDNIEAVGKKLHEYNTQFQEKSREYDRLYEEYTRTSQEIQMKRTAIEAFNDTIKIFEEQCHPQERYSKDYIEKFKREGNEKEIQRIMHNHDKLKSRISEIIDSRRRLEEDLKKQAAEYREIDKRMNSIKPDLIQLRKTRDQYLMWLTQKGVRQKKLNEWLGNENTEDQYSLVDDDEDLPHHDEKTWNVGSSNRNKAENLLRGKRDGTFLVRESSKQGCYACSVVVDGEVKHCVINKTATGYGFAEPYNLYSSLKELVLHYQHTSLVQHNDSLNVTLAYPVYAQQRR
The target in data set [5] is T2, PI 3-kinase beta. As to the kind of experiment: Cellular assay I1, p-Akt (S473) in Rat-1 cells, Surefire format. The format is cell-based. The following applies: non-asterisked data: version I1 (Surefire format), Rat-1 cells; read-out: Assay I PI3Kβ IC50.
Target sequence in this assay (P42338 whole entry): as the sequence (P42338 whole entry) above
Target sequence in this assay (Q63787 whole entry partner): as the sequence (Q63787 whole entry partner) above
Data set [6] deals with T4, PI 3-kinase delta (Homo sapiens, UniProt O00329). As to the kind of experiment: Cellular assay J1, p-Akt (S473) in Rat-1 cells, Surefire format. In kind it is cell-based. The following applies: non-asterisked data: version J1 (Surefire format), Rat-1 cells; read-out: Assay J PI3Kδ IC50.
Target sequence in this assay (O00329 whole entry): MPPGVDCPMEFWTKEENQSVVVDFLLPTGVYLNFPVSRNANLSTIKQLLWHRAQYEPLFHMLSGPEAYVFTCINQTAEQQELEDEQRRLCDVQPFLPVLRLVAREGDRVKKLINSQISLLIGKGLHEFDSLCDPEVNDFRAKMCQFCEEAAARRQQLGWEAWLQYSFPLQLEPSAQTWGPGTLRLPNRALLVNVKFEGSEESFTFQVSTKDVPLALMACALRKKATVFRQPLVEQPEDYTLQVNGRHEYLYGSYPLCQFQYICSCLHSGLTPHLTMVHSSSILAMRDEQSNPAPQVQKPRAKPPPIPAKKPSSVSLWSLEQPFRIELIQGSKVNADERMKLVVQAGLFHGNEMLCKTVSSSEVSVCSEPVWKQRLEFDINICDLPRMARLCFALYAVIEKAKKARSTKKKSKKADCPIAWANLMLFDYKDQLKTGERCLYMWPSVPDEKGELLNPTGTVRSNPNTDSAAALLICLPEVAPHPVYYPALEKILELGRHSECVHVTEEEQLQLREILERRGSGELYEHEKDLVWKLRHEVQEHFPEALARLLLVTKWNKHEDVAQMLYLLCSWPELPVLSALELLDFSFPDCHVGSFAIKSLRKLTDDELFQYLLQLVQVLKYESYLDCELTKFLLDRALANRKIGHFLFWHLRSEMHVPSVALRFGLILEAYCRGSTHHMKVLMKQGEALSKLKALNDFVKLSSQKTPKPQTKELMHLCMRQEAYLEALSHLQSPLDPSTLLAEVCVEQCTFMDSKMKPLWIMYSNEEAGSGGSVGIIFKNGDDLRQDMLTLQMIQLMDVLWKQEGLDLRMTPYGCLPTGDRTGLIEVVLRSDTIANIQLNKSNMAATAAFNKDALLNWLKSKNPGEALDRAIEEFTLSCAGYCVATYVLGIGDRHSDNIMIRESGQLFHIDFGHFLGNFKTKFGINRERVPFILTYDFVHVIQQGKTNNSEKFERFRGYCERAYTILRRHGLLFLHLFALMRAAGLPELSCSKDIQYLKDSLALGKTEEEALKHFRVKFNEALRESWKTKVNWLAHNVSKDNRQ
Target sequence in this assay (Q63787 whole entry partner): as the sequence (Q63787 whole entry partner) above
The target of data set [7] is T3, PI 3-kinase gamma. Kind of data set: Cellular U937 AKT assay K1 (MSD). In kind it is cell-based. The following applies: U937 cells, K1 format; read-out: Assay K1 PI3Kγ IC50.
Data set [8] addresses T3, PI 3-kinase gamma. Kind of data set: Cellular U937 AKT assay K2 (HTRF). In kind it is cell-based. The following applies: U937 cells, K2 format; read-out: Assay K2 PI3Kγ IC50.
Procedure: In assays K1 and K2, the compounds were tested for their ability to inhibit the production of phosphorylated AKT (Protein Kinase B) generated in a PI 3-kinase gamma isoform-dependent process in a U937 human cell line.
Cellular U937 AKT Assay for PI 3-Kinase Gamma (K2)
U937 cells are split every 3-4 days: 5×10^6 cells/flask (175 cm^2) in 40 ml.
Semi-automated preparation of cell lysates: Cells were resuspended in HBSS, seeded (200′000 cells/well/60 μl) into a 384-well plate and incubated in a humidified 37° C., 5% CO2 incubator for 1.5 hours. The compounds were diluted with HBSS and 40 μl were added to the starved cells (except for wells 24 I-P). […] The cells were then incubated for 30 minutes at 37° C. and 5% CO2. Stimulation occurred during 3 minutes by addition of 20 μl MIP1α (final 10 ng/ml, diluted in HBSS) in the incubator. Wells 24 A-H were only stimulated with HBSS.
The stimulation was then stopped by putting the cell plates on ice (filled with cold water). The cells were then centrifuged at 1200 rpm and 4° C. for 3 minutes.
80 μl of supernatant was removed. The cells were again centrifuged at 1200 rpm and 4° C. for 3 minutes. The supernatant was then removed by turning plates upside down and 30 μl of lysis buffer were added. The plate was incubated at room temperature for 30 minutes under shaking. 16 μl were then transferred to a ProxiPlate Plus 384-well. 4 μl of the master mix (each conjugate diluted 1:20 with detection reagent) were added to each well and the plate was kept in the dark at room temperature for 4 hours.
Data set [9] concerns IL-8-induced neutrophil shape change in human whole blood. Kind of data set: Whole blood neutrophil shape change assay (L). The format is cell-based. Conditions: Homo sapiens, Neutrophil, IL-8, human whole blood, read-out: Assay L WBSC IC50.
Data set [10] addresses T4, PI 3-kinase delta. As to the kind of experiment: TR-FRET Adapta assay, assay F.
Procedure: as §1, §2, §3, §4, §5, §6
Data set [11] can be described thus: Microsomal clearance assay (M). Conditions: intrinsic clearance in rat liver microsomes. (Liver microsomes are a subcellular fraction often used to study metabolism.)
Procedure: The experiments were performed in 96-well glass plates at 37° C. on an automated Tecan EVO platform. Test compounds at a concentration of 10 mM in pure DMSO were diluted 1:1000 in water to 10 μM. […] Reactions were initiated by the addition of 150 μL of a cofactor solution containing 2 mM NADPH.

Counter-ions that a name gives are not always drawn.

Nine molecules from patent US10004732B2 (Novartis AG, priority 2014, dated 2018) can be followed below.

A word on the IC50: it is the midpoint of a concentration-inhibition curve.

Sequence of Vps34 (Q8NEB9 whole entry, species assumed): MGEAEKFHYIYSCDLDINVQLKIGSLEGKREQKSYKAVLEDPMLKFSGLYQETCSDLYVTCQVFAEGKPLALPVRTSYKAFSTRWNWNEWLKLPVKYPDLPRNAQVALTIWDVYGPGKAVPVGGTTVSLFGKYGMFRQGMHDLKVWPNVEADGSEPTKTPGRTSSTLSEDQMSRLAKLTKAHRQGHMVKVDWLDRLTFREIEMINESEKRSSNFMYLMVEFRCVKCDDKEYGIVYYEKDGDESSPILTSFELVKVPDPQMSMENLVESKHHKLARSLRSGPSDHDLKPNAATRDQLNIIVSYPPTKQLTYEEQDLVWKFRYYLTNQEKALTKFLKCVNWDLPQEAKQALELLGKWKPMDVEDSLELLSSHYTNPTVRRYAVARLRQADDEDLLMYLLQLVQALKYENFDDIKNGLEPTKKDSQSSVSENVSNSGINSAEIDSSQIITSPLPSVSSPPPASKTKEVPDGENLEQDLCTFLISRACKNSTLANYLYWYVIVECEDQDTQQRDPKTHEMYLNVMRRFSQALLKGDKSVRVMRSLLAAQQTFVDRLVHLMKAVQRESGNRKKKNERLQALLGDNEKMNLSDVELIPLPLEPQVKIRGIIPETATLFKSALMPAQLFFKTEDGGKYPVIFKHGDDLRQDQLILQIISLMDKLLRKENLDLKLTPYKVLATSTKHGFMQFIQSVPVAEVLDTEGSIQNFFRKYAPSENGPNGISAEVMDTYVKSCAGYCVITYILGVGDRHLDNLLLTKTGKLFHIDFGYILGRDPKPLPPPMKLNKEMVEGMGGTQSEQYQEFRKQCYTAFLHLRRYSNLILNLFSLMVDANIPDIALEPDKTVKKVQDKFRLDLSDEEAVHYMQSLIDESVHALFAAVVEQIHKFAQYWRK
Procedure for mTOR: Lanthascreen™ Kinase Binding Assay for mTOR (G)
Binding of an inhibitor to the kinase competes for binding with the tracer, resulting in a loss of FRET.
50 nL of compound dilutions were dispensed onto white 384-well small volume polystyrene plate.

Consider `Cc1ccc(S(=O)(=O)NCC2(C)COC2)cc1-c1cnc(N)c(-c2cnn(C)c2)n1` [Example 5, 3-[5-Amino-6-(1-methyl-1H-pyrazol-4-yl)-pyrazin-2-yl]-4-methyl-N-(3-methyl-oxetan-3-ylmethyl)-benzenesulfonamide], for which the IC50 was 680 nM on PI 3-kinase alpha [1]; 690 nM at PI 3-kinase beta [2]; > 10000 nM at Vps34; 6700 nM at PI 4-kinase beta; 12 nM on PI 3-kinase gamma [3]; > 10000 nM on mTOR. Besides, the IC50 is > 10000 nM on PI 3-kinase alpha [4]; > 10000 nM at PI 3-kinase beta [5]; 3450 nM at PI 3-kinase delta [6]; 78 nM on PI 3-kinase gamma [7]; 261 nM at PI 3-kinase gamma [8]; 696 nM in data set [9]. For the same molecule, the IC50 on PI 3-kinase delta [10] (read-out: Assay F PI3Kδ IC50) amounted to 1000 nM. For the same molecule, the “Assay M RLM CI(int)” value in data set [11] stood at 26 µL/min/mg.
For `Cc1ncc(-c2nc(-c3cc(S(=O)(=O)NC[C@H]4C[C@@H](O)C4)ccc3C)cnc2N)s1` [Example 20a, cis-3-[5-Amino-6-(2-methyl-thiazol-5-yl)-pyrazin-2-yl]-N-(3-hydroxy-cyclobutylmethyl)-4-methyl-benzenesulfonamide], the IC50 on PI 3-kinase alpha [1] was 30 nM; on PI 3-kinase beta [2], 1060 nM; at Vps34 it was > 9100 nM; at PI 4-kinase beta it was 5280 nM; at PI 3-kinase gamma [3], 7 nM; on mTOR, 1880 nM. The IC50 was 720 nM on PI 3-kinase alpha [4]; 1430 nM on PI 3-kinase beta [5]; 420 nM at PI 3-kinase delta [6]; 11 nM at PI 3-kinase gamma [7]; 23 nM at PI 3-kinase gamma [8]; 232 nM in [9]. The molecule also had an IC50 on PI 3-kinase delta [10] of 50 nM. Moreover, the “Assay M RLM CI(int)” value in data set [11] was 55 µL/min/mg.
Consider `Cc1ncc(-c2nc(-c3cc(S(=O)(=O)NC[C@H]4C[C@H](O)C4)ccc3C)cnc2N)s1` [Example 20b, trans-3-[5-Amino-6-(2-methyl-thiazol-5-yl)-pyrazin-2-yl]-N-(3-hydroxy-cyclobutylmethyl)-4-methyl-benzenesulfonamide], for which the IC50 was 50 nM at PI 3-kinase alpha [1]; 880 nM on PI 3-kinase beta [2]; 400 nM at Vps34; 4980 nM on PI 4-kinase beta; 11 nM on PI 3-kinase gamma [3]; 3310 nM on mTOR. Moreover, the IC50 was 660 nM at PI 3-kinase alpha [4]; 1730 nM on PI 3-kinase beta [5]; 610 nM at PI 3-kinase delta [6]; 14 nM at PI 3-kinase gamma [7]; 24 nM at PI 3-kinase gamma [8]; 106 nM in data set [9]. Further, the IC50 at PI 3-kinase delta [10] stood at 50 nM. Moreover, the “Assay M RLM CI(int)” value in data set [11] worked out at 30 µL/min/mg.
On to `Cc1ccc(S(=O)(=O)NCC(C)(C)O)cc1-c1cnc(N)c(-c2cnc(C3CC3)s2)n1` [Example 21, 3-[5-Amino-6-(2-cyclopropyl-thiazol-5-yl)-pyrazin-2-yl]-N-(2-hydroxy-2-methyl-propyl)-4-methyl-benzenesulfonamide], for which the 50% inhibitory concentration (IC50) at PI 3-kinase alpha [1] came to 40 nM; at PI 3-kinase beta [2] it was 150 nM; at Vps34, 1400 nM; at PI 4-kinase beta, 1500 nM; at PI 3-kinase gamma [3], 6 nM; at mTOR, 690 nM. Also, the IC50 at PI 3-kinase alpha [4] stood at 510 nM; at PI 3-kinase beta [5] it was 590 nM; at PI 3-kinase delta [6] it was 460 nM; at PI 3-kinase gamma [7], 18 nM; on PI 3-kinase gamma [8], 90 nM; in data set [9], 244 nM. Also, the IC50 at PI 3-kinase delta [10] (read-out: Assay F PI3Kδ IC50) worked out at 80 nM. In addition, the “Assay M RLM CI(int)” value in [11] amounted to 109 µL/min/mg.
Regarding `Cc1ccc(S(=O)(=O)N[C@H]2CC[C@H](O)CC2)cc1-c1cnc(N)c(-c2cccnc2)n1` [Example 22, Trans-3-(5-Amino-6-pyridin-3-yl-pyrazin-2-yl)-N-(4-hydroxy-cyclohexyl)-4-methyl benzenesulfonamide], the IC50 at PI 3-kinase alpha [1] was 760 nM; on PI 3-kinase beta [2] it was 5710 nM; on Vps34, > 9100 nM; at PI 4-kinase beta, 7080 nM; at PI 3-kinase gamma [3] it was 44 nM; on mTOR it was 8020 nM. The IC50 is 6670 nM on PI 3-kinase alpha [4]; > 10000 nM on PI 3-kinase beta [5]; 4690 nM on PI 3-kinase delta [6]; 164 nM on PI 3-kinase gamma [7]; 100 nM on PI 3-kinase gamma [8]; 256 nM in data set [9]. The IC50 on PI 3-kinase delta [10] (read-out: Assay F PI3Kδ IC50) came to 420 nM. Also, the “Assay M RLM CI(int)” value in data set [11] came out at 47 µL/min/mg.
`Cc1ncn(-c2nc(-c3cc(S(=O)(=O)NCC(C)(C)O)ccc3C)cnc2N)n1` [Example 25, 3-[5-Amino-6-(3-methyl-[1,2,4]triazol-1-yl)-pyrazin-2-yl]-N-(2-hydroxy-2-methyl-propyl)-4-methyl-benzenesulfonamide]: the IC50 on PI 3-kinase alpha [1] was 620 nM; at PI 3-kinase beta [2] it was 3150 nM; on Vps34 it was > 10000 nM; at PI 4-kinase beta it was > 10000 nM; at PI 3-kinase gamma [3] it was 79 nM; on mTOR, 210 nM. Further, the IC50 at PI 3-kinase alpha [4] amounted to 2190 nM; at PI 3-kinase beta [5], 1700 nM; at PI 3-kinase delta [6], 1390 nM; on PI 3-kinase gamma [7], 153 nM; at PI 3-kinase gamma [8] it was 2340 nM; in data set [9], 742 nM. Moreover, the IC50 at PI 3-kinase delta [10] (read-out: Assay F PI3Kδ IC50) was 1030 nM. In data set [11], the “Assay M RLM CI(int)” value stood at 71 µL/min/mg.
As for `Cc1ccc(S(=O)(=O)NCCC(C)(C)O)cc1-c1cnc(N)c(-c2cscn2)n1` [Example 108, 3-(5-Amino-6-(thiazol-4-yl)pyrazin-2-yl)-N-(3-hydroxy-3-methylbutyl)-4-methylbenzenesulfonamide], the IC50 is 310 nM on PI 3-kinase alpha [1]; 260 nM on PI 3-kinase beta [2]; 640 nM at PI 4-kinase beta; 38 nM at PI 3-kinase gamma [3]; > 10000 nM at mTOR; 5780 nM on PI 3-kinase alpha [4]. Moreover, the IC50 at PI 3-kinase beta [5] stood at 3010 nM; on PI 3-kinase delta [6] it was 410 nM; at PI 3-kinase gamma [7], 58 nM; on PI 3-kinase gamma [8], 163 nM; in data set [9], 5560 nM; on PI 3-kinase delta [10] (read-out: Assay F PI3Kδ IC50) it was 330 nM. Also, the “Assay M RLM CI(int)” value in data set [11] came to 112 µL/min/mg.
For the molecule `Cc1ccc(S(=O)(=O)NCC(C)(C)O)cc1-c1cnc(N)c(-n2cnc(CN(C)C)n2)n1` [Example 117, 3-(5-Amino-6-(3-((dimethylamino)methyl)-1H-1,2,4-triazol-1-yl)pyrazin-2-yl)-N-(2-hydroxy-2-methylpropyl)-4-methylbenzenesulfonamide hydrochloride salt], the IC50 is 900 nM on PI 3-kinase alpha [1]; > 10000 nM on PI 3-kinase beta [2]; > 10000 nM on Vps34; > 10000 nM at PI 4-kinase beta; 36 nM on PI 3-kinase gamma [3]; > 10000 nM on mTOR. Besides, the IC50 was > 10000 nM at PI 3-kinase alpha [4]; > 3000 nM at PI 3-kinase beta [5]; > 10000 nM at PI 3-kinase delta [6]; 577 nM on PI 3-kinase gamma [7]; 945 nM at PI 3-kinase gamma [8]; 727 nM in data set [9]. Further, the “Assay M RLM CI(int)” value in [11] turned out to be 85 µL/min/mg.
Consider `Cc1ccc(S(=O)(=O)NCC2CNCCO2)cc1-c1cnc(N)c(-c2cn(C)nc2C)n1` (stereo not drawn) [Example 128.8, 3-(5-amino-6-(1,3-dimethyl-1H-pyrazol-4-yl)pyrazin-2-yl)-4-methyl-N-(morpholin-2-ylmethyl)benzenesulfonamide], for which the IC50 is 590 nM on PI 3-kinase alpha [1]; 1800 nM at PI 3-kinase beta [2]; > 10000 nM on Vps34; > 10000 nM at PI 4-kinase beta; 21 nM on PI 3-kinase gamma [3]; > 3000 nM at PI 3-kinase alpha [4]. Moreover, the IC50 on PI 3-kinase beta [5] was > 10000 nM; on PI 3-kinase delta [6], > 10000 nM; on PI 3-kinase gamma [7] it was 751 nM; on PI 3-kinase gamma [8], 421 nM; in data set [9] it was 1670 nM; on PI 3-kinase delta [10] (read-out: Assay F PI3Kδ IC50), 100 nM. The “Assay M RLM CI(int)” value in data set [11] was <3.4 µL/min/mg.
